The results in this text go back to patent US6479548B2, “Substituted stilbenes as glucose uptake enhancers” (Telik, Inc., priority 2000, dated 2002).

The target in one experiment is T1, complete β-kinase domain of the human insulin receptor (CKD) (Homo sapiens, UniProt P06213).
T1 construct: The complete β-kinase domain of the human insulin receptor (CKD); made in house
T1 sequence (P06213 1023-1298 limits assumed): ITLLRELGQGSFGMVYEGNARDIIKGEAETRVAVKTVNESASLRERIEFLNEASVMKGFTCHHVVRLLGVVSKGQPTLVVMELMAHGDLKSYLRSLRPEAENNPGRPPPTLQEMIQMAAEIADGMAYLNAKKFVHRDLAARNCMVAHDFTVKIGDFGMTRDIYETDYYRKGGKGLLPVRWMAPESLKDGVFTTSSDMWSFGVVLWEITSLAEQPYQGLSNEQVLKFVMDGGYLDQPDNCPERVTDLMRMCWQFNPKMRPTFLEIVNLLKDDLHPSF
The experiment is described as follows: 32P-CKD autophosphorylation assay. To be noted: 10 min; compound at 10 μM; phosphorylation of CKD expressed as % of the vehicle level; read-out: Activity (% vs. control). The experiment is classed as biochemical. As to the method: The complete β-kinase domain of the human insulin receptor (CKD) was expressed in, and purified from, baculovirus. CKD (4.0 μg/ml), in a solution of 29 mM HEPES (pH 7.6), 0.05% Triton X-100, 10 mM MgCl2, 2 mM MnCl2 (50 μl final volume), is combined with 50 μM ATP, and 5 μCi ^32P-ATP (3000 Ci/mmol).
Take `CN(C(=O)c1ccccc1)c1ccc(/C=C/c2ccccc2)cc1C(=O)O` [Compound 25, 5-((1E)-2-phenylvinyl)-2-(N-methylphenylcarbonylamino)benzoic acid]: the activity at 10 µM came out at 59%. On the same count and under the same terms, the result for `COc1cc(C(=O)Nc2ccc(/C=C/c3ccccc3)cc2C(=O)O)cc(OC)c1OC` [Compound 26, 5-((1E)-2-phenylvinyl)-2-[(3,4,5-trimethoxyphenyl)carbonylamino]benzoic acid] reads 107%. Regarding `COC(=O)c1cc(/C=C/c2ccccc2)ccc1NC(=O)c1ccccc1` [Compound 27, methyl 5-((1E)-2-phenylvinyl)-2-[phenylcarbonylamino)benzoate], the activity at 10 µM was found to be 73%.

As to `COc1ccc(/C=C/c2ccc(N(C)C(=O)c3ccccc3)c(C(=O)O)c2)cc1` [Compound 28, 5-[(1E)-2-(4-methoxyphenyl)vinyl]-2-(N-methylphenylcarbonylamino)benzoic acid], the activity at 10 µM came out at 75%. Same read-out and setting: with `COC(=O)c1ccc(C(=O)N(C)c2ccc(C(=O)Nc3ccc(/C=C/c4ccc(OC)cc4)cc3C(=O)OC)cc2)cc1` [Compound 29, methyl 4-{N-[4-(N-{4-[(1E)-2-(4-methoxyphenyl)vinyl]-2-(methoxycarbonyl)-phenyl}carbamoyl)phenyl]-N-methylcarbamoyl}benzoate] the figure was 61%. Take `COC(=O)c1ccc(N(C(C)=O)c2ccc(C(=O)Nc3ccc(/C=C/c4ccc(OC)cc4)cc3C(=O)O)cc2)cc1` [Compound 30, 5-[(1E)-2-(4-methoxyphenyl)vinyl]-2-[(4-{[4-(methoxycarbonyl)phenyl]-N-methyl-carbonylamino}phenyl)carbonylamino]benzoic acid]: the activity at 10 µM amounted to 93%. On the same count and under the same terms, the result for `COc1ccc(/C=C/c2ccc(NC(=O)c3ccc(N(C(C)=O)c4ccc(C(=O)O)cc4)cc3)c(C(=O)O)c2)cc1` [Compound 31, 5-[(1E)-2-(4-methoxyphenyl)vinyl]-2-({4-[(4-carboxyphenyl)-N-methylcarbonyl-amino]phenyl}carbonylamino)benzoic acid] reads 121%; that for `COC(=O)c1ccc(C(=O)N(C)c2ccc(C(=O)Nc3ccc(/C=C/c4ccccc4F)cc3C(=O)OC)cc2)cc1` [Compound 32, methyl 4-{N-[4-(N-{4-[(1E)-2-(2-fluorophenyl)vinyl]-2-(methoxycarbonyl)phenyl}-carbamoyl)phenyl]-N-methylcarbamoyl}benzoate], 81%; that for `CC(=O)N(c1ccc(C(=O)O)cc1)c1ccc(C(=O)Nc2ccc(/C=C/c3ccccc3F)cc2C(=O)O)cc1` [Compound 33, 5-[(1E)-2-(2-fluorophenyl)vinyl]-2-({4-[(4-carboxyphenyl)-N-methylcarbonyl-amino]phenyl}carbonylamino)benzoic acid], 78%. Still for that read-out and setting: the result for `COC(=O)c1ccc(C(=O)N(C)c2ccc(C(=O)Nc3ccc(/C=C/c4ccc(F)cc4)cc3C(=O)OC)cc2)cc1` [Compound 34, methyl 4-{N-[4-(N-{4-[(1E)-2-(4-fluorophenyl)vinyl]-2-(methoxycarbonyl)phenyl}-carbamoyl)phenyl]-N-methylcarbamoyl}benzoate] reads 88%; that for `CC(=O)N(c1ccc(C(=O)O)cc1)c1ccc(C(=O)Nc2ccc(/C=C/c3ccc(F)cc3)cc2C(=O)O)cc1` [Compound 35, 5-[(1E)-2-(4-fluorophenyl)vinyl]-2-({4-[(4-carboxyphenyl)-N-methylcarbonyl-amino]phenyl}carbonylamino)benzoic acid], 177%; that for `COC(=O)c1ccc(N(C(C)=O)c2ccc(C(=O)Nc3ccc(/C=C/c4ccc(S(=O)(=O)O)cc4)cc3C(=O)OC)cc2)cc1` [Compound 36, 4-((1E)-2-{3-(methoxycarbonyl)-4-[(4-{[4-(methoxycarbonyl)phenyl]-N-methyl-carbonylamino}phenyl)carbonylamino]phenyl}vinyl)benzenesulfonic acid], 171%.

As to `COC(=O)c1ccc(C(=O)N(C)c2ccc(C(=O)Nc3ccc(/C=C/c4cccc(F)c4)cc3C(=O)OC)cc2)cc1` [Compound 37, methyl 4-{N-[4-(N-{4-[(1E)-2-(3-fluorophenyl)vinyl]-2-(methoxycarbonyl)phenyl}-carbamoyl)phenyl]-N-methylcarbamoyl}benzoate], the activity at 10 µM was 93%. Same read-out and setting: the result for `O=C(Nc1ccc(/C=C/c2ccccc2)c(C(=O)O)c1)c1ccccc1` [Compound 38, 2-((1E)-2-phenylvinyl)-5-(phenylcarbonylamino)benzoic acid] reads 105%. On the same count and under the same terms, the result for `COC(=O)c1ccc(N(C(C)=O)c2ccc(C(=O)Nc3ccc(/C=C/c4ccccc4)c(C(=O)O)c3)cc2)cc1` [Compound 39, 2-((1E)-2-phenylvinyl)-5-[(4-{[4-(methoxycarbonyl)phenyl]-N-methylcarbonyl-amino}phenyl)carbonylamino]benzoic acid] reads 64%; that for `O=C(Nc1ccc(/C=C/c2ccccc2)cc1C(=O)O)c1cc(O)cc(O)c1` [Compound 41, 5-((1E)-2-phenylvinyl)-2-[(3,5-dihydroxyphenyl)carbonylamino]benzoic acid], 80%. Same read-out and setting: the result for `COc1cccc(C(=O)Nc2ccc(/C=C/c3ccccc3)cc2C(=O)O)c1` [Compound 42, 5-((1E)-2-phenylvinyl)-2-[(3-methoxyphenyl)carbonylamino]benzoic acid] reads 123%; that for `COC(=O)c1ccc(/C=C/c2ccc(NC(=O)c3ccc(N(C)C(=O)c4ccc(C(=O)OC)cc4)cc3)cc2)cc1` [Compound 44, methyl 4-(N-{4-[N-(4-{(1E)-2-[4-(methoxycarbonyl)phenyl]vinyl}phenyl)-carbamoyl]phenyl}-N-methylcarbamoyl)benzoate], 97%. For `COC(=O)c1ccc(N(C(C)=O)c2ccc(C(=O)Nc3ccc(/C=C/c4cccc(CC(=O)O)c4)cc3)cc2)cc1` [Compound 46, 2-[3-((1E)-2-{4-[(4-{[4-(methoxycarbonyl)phenyl]-N-methylcarbonylamino}-phenyl)carbonylamino]phenyl}vinyl)phenyl]acetic acid], the activity at 10 µM stood at 91%. The same measure, in the same setting: with `COC(=O)c1ccc(N(C(C)=O)c2ccc(N(C(C)=O)c3ccc(/C=C/c4ccc(OC(C)(C)C)c(C(=O)O)c4)cc3)cc2)cc1` [Compound 49, 5-((1E)-2-{4-[(4-{[4-(methoxycarbonyl)phenyl]-N-methylcarbonylamino}phenyl)-N-methylcarbonylamino]phenyl}vinyl)-2-(tert-butoxy)benzoic acid] the figure was 81%; with `CC(=O)N(c1ccc(/C=C/c2ccc(OC(C)(C)C)c(C(=O)O)c2)cc1)c1ccc(N(C(C)=O)c2ccc(C(=O)O)cc2)cc1` [Compound 50, 5-{(1E)-2-[4-({4-[(4-carboxyphenyl)-N-methylcarbonylamino]phenyl}-N-methyl-carbonylamino)phenyl]vinyl}-2-(tert-butoxy)benzoic acid], 105%.

Take `COC(=O)c1cc(/C=C/c2ccccc2)ccc1NC(=O)c1ccc(OC)c(OC)c1` [Compound 52, methyl 5-((1E)-2-phenylvinyl)-2-[(3,4-dimethoxyphenyl)carbonylamino]benzoate]: the activity at 10 µM is 54%. Same read-out and setting: with `COc1ccc(C(=O)Nc2ccc(/C=C/c3ccccc3)cc2C(=O)O)cc1OC` [Compound 53, 5-((1E)-2-phenylvinyl)-2-[(3,4-dimethoxyphenyl)carbonylamino]benzoic acid] the figure was 105%. With `COc1cccc(C(=O)Nc2ccc(/C=C/c3ccccc3)cc2CC(=O)O)c1` [Compound 55, 2-{5-((1E)-2-phenylvinyl)-2-[(3-methoxyphenyl)carbonylamino]phenyl}acetic acid], the activity at 10 µM was determined as 117%.

Regarding `COc1ccc(/C=C/c2ccc(N(Cc3ccc(C(=O)O)cc3)C(=O)c3ccc(N(C(C)=O)c4ccc(C(=O)O)cc4)cc3)c(C(=O)O)c2)cc1` [Compound 57, 5-[(1E)-2-(4-methoxyphenyl)vinyl]-2-(N-[(4-carboxyphenyl)methyl]{4-[(4-carboxy-phenyl)-N-methylcarbonylamino]phenyl}carbonylamino)benzoic acid], the activity at 10 µM was 107%.

In the case of `O=C(O)COc1cc(OCC(=O)O)cc(C(=O)Nc2ccc(/C=C/c3ccccc3)cc2C(=O)O)c1` [Compound 59, 5-((1E)-2-phenylvinyl)-2-{[3,5-bis(carboxymethoxy)phenyl]carbonylamino}benzoic acid], the activity at 10 µM came out at 94%. Same read-out and setting: with `O=C(O)c1ccc(COc2cc(OCc3ccc(C(=O)O)cc3)cc(C(=O)Nc3ccc(/C=C/c4ccccc4)cc3C(=O)O)c2)cc1` [Compound 60, 5-((1E)-2-phenylvinyl)-2-({3,5-bis[(4-carboxyphenyl)methoxy]phenyl}carbonyl-amino)benzoic acid] the figure was 80%.

The same experiment, now with this note: compound at 10 μM; phosphorylation of CKD expressed as % of the vehicle level.
For `COc1ccc(/C=C/c2ccc(NC(=O)c3ccc4c(c3)OCO4)cc2)cc1` [Compound 56, N-{4-[(1E)-2-(4-methoxyphenyl)vinyl]phenyl}-2H-benzo[d]1,3-dioxolen-5-yl-carboxamide], the “Activity (% vs. control)” value stood at 51%.
